In patent US12582652B2, “3-(ethoxydifluoromethyl)-6-(5-fluoro-6-(2,2,2-trifluoroethoxy)pyridin-3-yl)-[1,2,4]triazolo[4,3-a]pyrazine as an ion channel modulator” (Praxis Precision Medicines, Inc., priority 2022, dated 2026):
Entries after “also recorded” stand apart in the source; their conditions may differ.

How the values were obtained:
human NaV1.6 [1] = target: T1, human NaV1.6 (Homo sapiens, UniProt Q9UQD0); experiment: Peak INa tonic block (TB), PatchXpress patch clamp; assay type: cell-based
T1 construct: stably expressing either human NaV1.6 (NP_055006); expressed in transfected cells
Procedure: (§1) HEK-293 cell lines stably expressing either human NaV1.6 (NP_055006), mouse NaV1.6 (NP_035453.2), or rat NaV1.6 (NP_062139) were used. All cells were seeded at 2×10^6 cells per Nunc T75 flask for 2 days in culture. At time of harvest for assays, the cell counts were approximately 6×10^6 cells. Cells were washed (1×) in DPBS (Hyclone, Cat #SH30028.03) for approximately 30 seconds. 1 mL of 1×0.05% Trypsin-EDTA (GIBCO Cat #25300-054) was added and swirled around to cover the bottom of the flask and was allowed to sit on the cells for approximately 4 minutes (±90% of the cells were lifted by light tapping of the flask). 10 mL of warmed media (DMEM high glucose media Hyclone, SH30022.02 supplemented with 10% Fetal Bovine Serum, 2 mM Sodium Pyruvate, 10 mM HEPES and 400 μg/mL G418) was added to inactivate the trypsin. Cells were triturated until a single cell suspension was achieved. A cell count was performed and cells were aliquoted into a 250 ml centrifuge tube at a concentration of 2×10^5/mL in +30 ml of prewarmed media. The 250 mL centrifuge tube was placed on a rocker in an incubator set at 28° C. and gently rocked for approximately 1 hour to allow cells to recover. Cell aliquots of 5 mL (1×10^6 cells) were placed in a 15 mL centrifuge tube and spun at 100×g for 2 minutes. Supernatant was removed leaving a cell pellet. 100 μL of external recording solution was added to the pellet and triturated 20 times to achieve a single cell suspension and then transferred to a 1.5 mL tube for placement in the PatchXpress® (Molecular Devices).
(§2) Compound 1 was provided as powder and prepared as 10 mM DMSO stocks in 1 dram glass vials prior to assay. Immediately prior to assay, Compound 1 was diluted with DMSO to 300×, the designated final assay concentration. Assay dilutions (1× concentration) were prepared by pipetting 3 μL of diluted Compound 1 into 897 μL of extracellular solution in a 1 mL glass shell vial. Vials were capped and vortexed until initiation of the PatchXpress® (Molecular Devices) recording protocol.
(§3) The same intracellular recording solution was used for the persistent and peak INa assays, which contained: 135 mM CsF, 10 mM CsCl, 5 mM NaCl, 10 mM HEPES, 5 mM EGTA at a pH of 7.4 (adjusted with CsOH) and a measured osmolarity of 298 mOsm (adjusted with mannitol). For the persistent INa assay, the external recording solution contained: 135 mM NaCl, 5.4 mM KCl, 5 mM glucose, 2 mM CaCl2), 1 mM MgCl2, 10 mM HEPES, and 200 nM ATX-II (sea anemone toxin, Alomone Labs; Jerusalem, Israel) at a pH of 7.4 (adjusted with NaOH) and a measured osmolarity of 300 mOsm (adjusted with mannitol). For the peak INa assays, the external recording solution contained: 100 mM NaCl, 35 mM NMDG, 5.4 mM KCl, 5 mM glucose, 2 mM CaCl2), 1 mM MgCl2, and 10 mM HEPES at a pH of 7.4 (adjusted with NaOH) and a measured osmolarity of 300 mOsm (adjusted with mannitol).
(§4) All studies were performed using the PatchXpress® (Molecular Devices) automated patch clamp platform (Molecular Devices) using the whole cell configuration. Recordings were performed at room temperature. Data were collected using Patch Commander software (Molecular Devices) and processed using DataXpress 2.0 (Molecular Devices). Cell acceptance criteria were continuously monitored by custom scripts during the recording. Acceptance criteria for all assays were: baseline peak INa>800 pA, Rseal>200 MΩ, and, where appropriate, persistent INa>100 pA. Compensation was 50% and leak subtraction was not used. Currents were filtered at 5 kHz and digitized at 32.5 kHz. Raccess and Rseal were monitored throughout the recording and cells with Raccess>10 MΩ or Rseal<200 MΩ were terminated automatically by script.
Tonic Block (TB): Tonic Block (TB) protocols used low stimulation rates (about 0.1 Hz) and negative potentials (−120 mV) to keep channels in closed (resting) states. Pharmacology was measured during peak INa in response to step to 0 mV. No leak subtraction was used.

[2] = Compound 1 human pharmacokinetics as stated in trial rationale; assay type: in vivo; conditions: predicted from current knowledge of pharmacokinetics
male CD-1 mice [3] = experiment: Spontaneous locomotor activity (sLMA) test
Procedure: Male CD-1 mice, 6-weeks old, were obtained from Vital River (Beijing, China). The average body weight was 25-35 g at the time the experiments were carried out. The mice were housed in groups of 3-5 under controlled conditions (temperature: 20-26° C.; humidity: 40-70%; air exchange rate: 10-15 cycles/hour; 12:12 light-dark cycle with lights on at 5:00 a.m.). Food and water were available ad libitum. The mice were acclimated to these conditions for 6 days before the start of the studies.
Dosing solutions were prepared on each experiment day. […] All solutions were protected from light. Samples from dosing solutions were stored at 4° C. Both compound and vehicle were dosed at 10 ml/kg.
The sLMA test was carried out over two days. 5 of 10 mice from each treatment group were tested on each day. All animals were marked on the tail with a permanent marker and weighed. Mice were randomly assigned into one of the four treatment groups. Animals were acclimated to the test room at least 30 minutes before the start of the experiment.
Possible side effects, such as overt sedation, were recorded just before the start of the sLMA test.
Each mouse was automatically tracked with overhead cameras using a 1-minute sampling window in an isolated chamber. Spontaneous locomotor activity was then analyzed offline using the Animal Behavior Video Tracking Analysis System (Ji Liang Software Technology Co., Ltd., Shanghai, China).
Locomotor status was defined as >2 mm of movement in every 200 ms (Frame-rate recorded was 20 frames/second. Locomotor status was identified in every 4 frame-to-frame interval. The accumulated shift of tracking spots that exceeded 2 mm in every 4 frame intervals was identified as a locomotor epoch). Traveling distance was calculated automatically from all the locomotion epochs and analyzed.
All mice were anesthetized with CO2. Then, terminal plasma and brain tissue samples were collected from animals in the drug treatment groups. 500 μL whole blood was collected via cardiac puncture and placed in tubes with 10 μL EDTAK2. The tubes were then placed in wet ice until centrifuged at 2000 g for 5 minutes at 4° C. The supernatant plasma was pipetted into Eppendorf tubes.
All statistical analyses were conducted using GraphPad Prism 7.0. Data are presented as mean±s.e.m., and p<0.05 was regarded as statistically significant.
Dose-response and concentration-response curves for plasma and brain were fitted for each end-point using GraphPad Prism. From these fitted curves, TD50 and TC50 values were calculated.

CA1 pyramidal neurons = experiment: Intrinsic excitability (evoked action potentials) of CA1 pyramidal neurons, brain slice whole-cell current clamp; assay type: cell-based, mouse
Procedure: Three hundred micrometer coronal hippocampal slices were cut on a vibratome (VT1200; Leica) for whole-cell patch-clamp experiments. Slices were incubated for a minimum of 1 hour in the incubation solution at room temperature before patching.
Brain slices were transferred to a submerged recording chamber on an upright microscope (Slicescope Pro 1000; Scientifica) and were perfused (2 ml/min) with the extracellular artificial cerebral spinal fluid (aCSF) recording solution at 32° C.
CA1 pyramidal neurons were identified visually in the stratum pyramidale of the CA1 region of the hippocampus, using infrared-oblique illumination microscopy with a 40× water-immersion objective (Olympus) using a camera (Dage IR-2000; Dage). […] Patch-clamp recordings were made using a micromanipulator (MPC-200; Sutter) and Axon Multiclamp 700B patch-clamp amplifier (MDS). Data were acquired using pClamp software (v10; MDS) using a sampling rate of 50 kHz and low pass Bessel filtered at 10 kHz (Digidata 1550b; Axon).
Studies were performed using whole-cell current clamp recording mode. […] Once the whole-cell configuration was obtained for 2 minutes, a holding current was injected to maintain a membrane potential of approximately −70 mV. Current steps (injected current of between −60 to 340 pA in 20 pA steps, 400 ms duration) (FIG. 1B)) were applied in current clamp mode. The amplitude of current injections was relative to the holding current. A test pulse (−5 pA amplitude, 50 ms duration) was applied 650 ms after the termination of the main current step. The inter sweep interval was 5 seconds (0.2 Hz). To be included in the study, a cell had to have an access resistance of less than 20 M2 and a holding current of less than −200 pA. Once baseline action potential firing was determined in the presence of the extracellular aCSF recording solution (baseline), Compound 1 (300 nM or 3 μM) was washed onto the slice for 5 minutes before repeating the action potential generating protocol (FIG. 1B).
Data were analyzed using Axograph X software. Individual action potentials were identified and counted using a +50 mV amplitude threshold relative to pre-event baseline. The frequencies of action potentials generated were plotted for each of the current injections to create an input-frequency relationship for each cell. Action potential amplitudes were determined relative to the pre-event baseline at the +200 pA current injection step for each cell. Once an action potential count had less than three cells contributing to the averaged amplitude, it was excluded from analysis. For statistical comparisons between groups, the total number of action potentials fired per cell was calculated. Statistical analysis was performed using GraphPad Prism software (v8). […]

human NaV1.6 [4] = target: T1, human NaV1.6; experiment: Peak INa voltage-dependent block (VDB), PatchXpress patch clamp; assay type: cell-based
Procedure: as §1, §2, §3, §4
Voltage Dependent Block (VDB): VDB protocols used a depolarized voltage to keep channels in half-inactivated (resting) states. This allowed equilibrium binding and accurate determination of isoform selectivity (in the absence of biological features).

male CD-1 mice [5] = experiment: Maximal electroshock induced seizure (MES) test; assay type: in vivo, mouse
Procedure: Food and water were available ad libitum.
VPA was prepared in saline (Vehicle 1). All solutions were protected from light. All compounds and vehicles were dosed at 10 ml/kg.
The MES test was carried out over two days with 6 of 12 mice from each treatment group being tested on each day. Mice were brought to the test room at least one hour before the start of the experiment.
A Grass S88x (Grass Technologies of Astro-Med, Inc., West Warwick, RI) Stimulus Isolation Unit (A385, WPI Inc., USA) was set to deliver a 50 mA square-wave stimulus, with a 0.8 second duration, a pulse width of 10 msec, and a frequency of 50 Hz. A pair of custom stainless steel electrodes were soaked in 0.2% Agar, and then the subject received bilateral transauricular stimulation through ear-clip electrodes. During the stimulation, mice were manually restrained. They were then released into the observation cage for convulsion observation for 60 seconds immediately after stimulation. Each mouse was observed continuously by individuals blinded to treatment conditions and results were recorded.
Anti-seizure assessment endpoints were: (1) latency of hindlimb tonic flexion; (2) latency of hindlimb tonic extension; (3) total #hindlimb tonic flexions; (4) total #hindlimb tonic extensions; (5) latency to death; and (6) mortality rate
From these fitted curves, ED50 and EC50 values were calculated.

T1 sequence (Q9UQD0 whole entry): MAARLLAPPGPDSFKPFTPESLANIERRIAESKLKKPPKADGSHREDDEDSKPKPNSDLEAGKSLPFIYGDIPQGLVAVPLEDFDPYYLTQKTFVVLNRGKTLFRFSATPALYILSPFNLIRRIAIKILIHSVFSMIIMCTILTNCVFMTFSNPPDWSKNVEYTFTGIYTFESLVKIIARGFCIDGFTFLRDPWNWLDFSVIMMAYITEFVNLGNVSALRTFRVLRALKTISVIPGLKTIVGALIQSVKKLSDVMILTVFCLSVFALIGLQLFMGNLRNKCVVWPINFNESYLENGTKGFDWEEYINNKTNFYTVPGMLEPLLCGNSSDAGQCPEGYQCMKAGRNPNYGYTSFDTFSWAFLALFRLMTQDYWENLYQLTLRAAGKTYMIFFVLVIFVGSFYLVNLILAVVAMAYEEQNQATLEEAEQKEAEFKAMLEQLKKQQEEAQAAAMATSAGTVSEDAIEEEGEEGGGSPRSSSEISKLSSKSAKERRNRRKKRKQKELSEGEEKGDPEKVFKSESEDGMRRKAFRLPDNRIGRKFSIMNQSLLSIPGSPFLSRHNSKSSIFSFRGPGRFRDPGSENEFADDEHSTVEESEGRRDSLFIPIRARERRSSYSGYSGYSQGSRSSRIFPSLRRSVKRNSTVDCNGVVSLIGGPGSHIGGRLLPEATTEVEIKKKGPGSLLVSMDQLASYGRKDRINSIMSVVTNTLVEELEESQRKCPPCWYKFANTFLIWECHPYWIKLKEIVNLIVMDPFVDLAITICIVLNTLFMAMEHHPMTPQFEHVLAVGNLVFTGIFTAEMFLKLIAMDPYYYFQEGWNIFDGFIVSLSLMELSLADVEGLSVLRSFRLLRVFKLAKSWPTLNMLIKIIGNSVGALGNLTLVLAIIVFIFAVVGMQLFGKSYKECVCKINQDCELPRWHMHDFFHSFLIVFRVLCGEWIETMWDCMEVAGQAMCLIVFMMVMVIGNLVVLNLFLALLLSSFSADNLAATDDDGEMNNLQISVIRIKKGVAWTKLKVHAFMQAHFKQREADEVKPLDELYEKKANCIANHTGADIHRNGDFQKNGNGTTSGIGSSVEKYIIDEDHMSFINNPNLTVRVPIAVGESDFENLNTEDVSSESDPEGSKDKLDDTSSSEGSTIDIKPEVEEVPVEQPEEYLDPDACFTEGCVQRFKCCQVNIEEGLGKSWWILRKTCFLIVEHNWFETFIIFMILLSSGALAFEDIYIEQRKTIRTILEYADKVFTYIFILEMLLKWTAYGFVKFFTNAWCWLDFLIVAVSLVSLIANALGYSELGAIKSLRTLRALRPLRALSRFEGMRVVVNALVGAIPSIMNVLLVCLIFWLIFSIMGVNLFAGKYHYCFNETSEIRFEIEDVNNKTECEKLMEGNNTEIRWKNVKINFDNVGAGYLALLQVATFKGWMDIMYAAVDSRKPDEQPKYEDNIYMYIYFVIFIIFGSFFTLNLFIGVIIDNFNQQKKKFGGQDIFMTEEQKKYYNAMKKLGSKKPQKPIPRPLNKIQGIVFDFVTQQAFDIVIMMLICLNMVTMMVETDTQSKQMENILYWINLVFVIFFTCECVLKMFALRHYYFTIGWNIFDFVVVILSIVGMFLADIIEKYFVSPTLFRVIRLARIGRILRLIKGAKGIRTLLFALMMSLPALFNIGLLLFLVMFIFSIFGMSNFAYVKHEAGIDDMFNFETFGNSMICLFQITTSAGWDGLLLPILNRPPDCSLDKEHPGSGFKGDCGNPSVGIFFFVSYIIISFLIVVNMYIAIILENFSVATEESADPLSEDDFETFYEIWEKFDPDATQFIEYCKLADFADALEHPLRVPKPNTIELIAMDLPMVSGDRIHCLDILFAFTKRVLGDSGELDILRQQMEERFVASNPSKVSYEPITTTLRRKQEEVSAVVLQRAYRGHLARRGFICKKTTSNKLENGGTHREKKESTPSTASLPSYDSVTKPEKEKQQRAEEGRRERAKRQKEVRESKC

## CCOC(F)(F)c1nnc2cnc(-c3cnc(OCC(F)(F)F)c(F)c3)cn12 [Compound 1, 3-(ethoxydifluoromethyl)-6-(5-fluoro-6-(2,2,2-trifluoroethoxy)pyridin-3-yl)-[1,2,4]triazolo[4,3-a]pyrazine]
Human NaV1.6 [1]; hNaV1.6
  Ratio to Pers. INa (Peak INa TB / persistent INa): 60
Human NaV1.6 [1]; hNaV1.6, 0.1 Hz, resting state
  IC50: 8470 nM
[2]
  time predicted to achieve 90% steady state: about 6 weeks
Male CD-1 mice [3]; 10 mg/kg
  effect on locomotor function: no effect on locomotor function
Male CD-1 mice [3]; 20 and 40 mg/kg p.o.
  total traveling distance in 30-minute sLMA test: significantly reduced; also recorded: reductions in the distance moved
Male CD-1 mice [3]; Compound 1 10-40 mg/kg po
  sLMA distance moved, dose-response: dose-dependent reductions in distance moved
Male CD-1 mice [3]; brain
  sLMA TC50 in brain (total): 1899 ng/g
Male CD-1 mice [3]; brain, free
  sLMA TC50 in brain (free): 69.7 nM
Male CD-1 mice [3]; dose reducing sLMA by 50%
  Tolerability (sLMA) TD50: 44 mg/kg
Male CD-1 mice [3]; free brain concentration
  Tolerability (sLMA) TC50 (free brain): 69.7 nM
Male CD-1 mice [3]; plasma
  sLMA TC50 in plasma (total): 1.553 µg/mL
Male CD-1 mice [3]; plasma TC50 (sLMA) / plasma EC50 (MES), free concentrations
  PI (Plasma): 17.3
Male CD-1 mice [3]; plasma, free
  sLMA TC50 in plasma (free): 308.9 nM
CA1 pyramidal neurons; 0.3 μmol/L (peak INa VDB IC50)
  intrinsic excitability, number of evoked APs: significantly reduced
CA1 pyramidal neurons; +200 pA current injection, 0.3 μmol/L Compound 1, 45 μmol/L CBZ
  AP amplitude: without compromising
CA1 pyramidal neurons; Compound 1 at 0.3 and 3 μM, wildtype mice
  number of action potentials generated / action potential firing frequency vs baseline: significantly reduced
Human NaV1.6 [4]; hNaV1.6
  Ratio to Pers. INa (Peak INa VDB / persistent INa): 2.2
Human NaV1.6 [4]; hNaV1.6, half-inactivated (V1/2)
  IC50: 317 nM
Male CD-1 mice [5]; 3 mg/kg p.o., 30 min before test
  latency to seizures following bilateral transauricular stimulation: significantly increased
Male CD-1 mice [5]; Compound 1 10 mg/kg
  mice that did not exhibit tonic seizures: 11 of 12
Male CD-1 mice [5]; Compound 1 0.3-10 mg/kg po
  protection (increase in latency) against MES-induced tonic hindlimb seizures, dose-response: dose-dependent increases in latency; also recorded: dose-dependent protection
Male CD-1 mice [5]; mouse MES, read-out: Efficacy (MES) ED50, increasing latency to tonic extension seizures
  ED50: 2 mg/kg
